Measurements from paper PMC9317016, “Oleocanthal Attenuates Metastatic Castration-Resistant Prostate Cancer Progression and Recurrence by Targeting SMYD2” (Cancers, 2022).

Target: SMYD2 (Homo sapiens, UniProt Q9NRG4)
Experiment: scintillation proximity methyltransferase assay, 3H-methyl incorporation into p53 peptide ([…]), single […] dose
Type: biochemical

SMYD2, sequence (Q9NRG4 whole entry): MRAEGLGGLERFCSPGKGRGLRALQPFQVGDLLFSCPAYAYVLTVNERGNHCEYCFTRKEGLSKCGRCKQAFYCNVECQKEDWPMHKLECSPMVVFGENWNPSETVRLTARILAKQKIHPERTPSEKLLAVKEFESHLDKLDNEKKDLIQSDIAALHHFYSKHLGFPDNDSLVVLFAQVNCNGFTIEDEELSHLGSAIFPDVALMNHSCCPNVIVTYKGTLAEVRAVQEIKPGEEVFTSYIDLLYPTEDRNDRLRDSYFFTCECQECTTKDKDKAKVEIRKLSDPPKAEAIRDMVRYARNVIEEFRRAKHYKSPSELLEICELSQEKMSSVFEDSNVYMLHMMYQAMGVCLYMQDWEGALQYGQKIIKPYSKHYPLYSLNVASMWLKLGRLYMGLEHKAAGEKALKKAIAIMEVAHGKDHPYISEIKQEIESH

- inhibition at 10 µM: 90.8%
Compound: C/C=C(/C=O)[C@@H](CC=O)CC(=O)OCCc1ccc(O)cc1 [OC, S-(-)-oleocanthal]
